Like-named read-outs stand apart in the source and are kept apart here.

A short description of data set [1]: Raman microscopy of dosage forms. The data set is classed as physicochemical.
Experimental: After deposition of the drops onto the film, the crystal structure of the mevastatin-PEG 3350 melt formulations were analyzed with a Raman RXN1 Microprobe (Kaiser Optical Systems, MI). First the spectra of pure mevastatin and PEG 3350 solid dispersions were obtained. Mevastatin and PEG 3350 powders were heated above their melting temperatures, to 152° C. and 60° C., respectively. The melts of pure mevastatin and pure PEG 3350 were solidified at room temperature and then analyzed to obtain the spectra of pure compounds. The spectra of the melt formulation consisting of 15% mevastatin and 85% PEG 3350 were obtained by analyzing the drops of the melt formulation deposited using the dropwise additive manufacturing process.
A Thermo Scientific DRX Raman Microscope equipped with a 532 nm laser is used to analyze the solid state form of the drug present in the melt formulations. First, the spectra of pure crystalline celecoxib and gelucire 44/14 solid dispersion are obtained. Pure celecoxib and pure gelucire 44/14 are analyzed to obtain the spectra of pure compounds. […]
The form of celecoxib in the dosage forms is analyzed with a Raman microscope to investigate the effect of gelucire on crystallization of celecoxib within the deposits.
Data set [2] is described as follows: API particle size, static image analysis (Malvern Morphologi G3-ID). The data set is classed as physicochemical. Conditions: dry powder. Here is the method: The micronized acetaminophen particle size distribution was obtained using the Malvern Morphologi G3-ID, which employs static image analysis to determine morphology. Powder samples of 7 mm^3 were obtained using a standard scoop, transferred to the attached dispersion unit (operated with 0.1 bar pressure and 60 second dispersion cycle) and analyzed at 20× magnification.
Particle morphology was determined in the same manner described in Example 33, but at a magnification of 5×.

Data set [3] in a line: API particle skeletal (true) density, helium gas pycnometry. Conditions: mean of four powder samples, ambient about 22° C. The data set is classed as physicochemical. As to the method:
The AccuPyc II 1340 Gas Displacement Pycnometry System (Micromeritics Instrument Corporation, Norcross, Ga.) was used to determine the skeletal density of the micronized acetaminophen powder. The AccuPyc II 1340 instrument determines the volume occupied by powder sample, and with knowledge of the sample mass (determined on a XS105 DualRange (Mettler Toledo, Switzerland)) the skeletal density is calculated; purge cycles function to clear the chamber of residual volatile species and occur prior to the measurement cycles. Helium gas was used as the measurement gas, and the following instrument specifications were used in each powder sample: 10 purges (purge fill pressure 19.5 psig), 10 cycles (cycle fill pressure 19.5 psig), pressure equilibration rate 0.0050 psig/min, 3.5 cm^3 cell volume. Performed at ambient conditions of 22° C. and 52% relative humidity, the density reported here corresponds to the mean value obtained from measurement of four powder samples. The density of micronized acetaminophen powder was determined to be 1.3285 g/cm^3.
Skeletal density was determined by the same procedure described in Example 31; testing was performed at ambient conditions of 22° C. and 51% relative humidity. The density reported here corresponds to the mean value obtained from measurement of four powder samples; the density of semi-fine acetaminophen powder was determined to be 1.3274 g/cm^3.
Skeletal density was determined by the same procedure described in Example 31; testing was performed at ambient conditions of 22.6° C. and 53% relative humidity. The density reported here corresponds to the mean value obtained from measurement of four powder samples; the density of mefenamic acid powder was determined to be 1.2706 g/cm^3

The nature of data set [4]: API powder bulk density, tapped density tester. The data set is classed as physicochemical. Here is the method:
In order to determine the solid volume fractions under which the mixtures of the micronized acetaminophen powder and NEOBEE® 895 would flow as a suspension, bulk density measurements were taken using the 350 Tapped Density Tester (Agilent Technologies, Santa Clara, Calif.), housed in an acoustic cabinet. The test was performed in accordance with ASTM standard D7481-09 (equivalent to USP Method 1) using a 100 mL graduated cylinder with drop height of 14±2 mm at a rate of 300 drops per minute. The mass of the powder sample was determined on a MS8001S NewClassic MF (Mettler Toledo, Switzerland) resulting in a bulk density of 0.36 g/cm^3 after 6000 taps, measured at 21.9° C. and 40% relative humidity.
Bulk density was determined by the same procedure described in Example 32; testing was performed at 22.1° C. and 45% relative humidity.

Where [5] appears, read: 15% naproxen 85% PEG 3350 melt dosage forms.

Turning to `COc1ccc2cc([C@H](C)C(=O)O)ccc2c1` [naproxen], the “Physical form of the drug in the dosage forms (X-ray diffraction)” value was “crystalline” under setting [5] and “crystalline” (15% naproxen 85% Pluronic F38 melt dosage forms). Besides, in data set [1] (setting [5]), the “Physical form of the drug in the dosage forms (Raman)” value is “crystalline”.

As for `CC[C@H](C)C(=O)O[C@H]1CCC=C2C=C[C@H](C)[C@H](CC[C@@H]3C[C@@H](O)CC(=O)O3)[C@H]21` [mevastatin], in data set [1] (15% mevastatin 85% PEG 3350 melt dosage forms), the “Physical form of the drug in the dosage forms (Raman)” value is recorded as “crystalline”.

As for `Cc1cccc(Nc2ccccc2C(=O)O)c1C` [mefenamic acid], in data set [2], the Sauter mean diameter is 88.83 μm and the d90 is 400.5 μm. Further, the “Skeletal (true) density” value in data set [3] was found to be 1.2706 g/mL. This compound registered a Bulk density in data set [4] (after 6000 taps) of 0.7423 g/mL.

In data set [2], `CC(=O)Nc1ccc(O)cc1` [semi-fine acetaminophen, acetaminophen (paracetamol)] returned a Sauter mean diameter of 47.66 μm and a d90 of 208.8 μm. Also, in data set [3], the “Skeletal (true) density” value is 1.3274 g/mL. This compound returned a Bulk density in data set [4] (after 8000 taps) of 0.46 g/mL.

As for `CC(=O)Nc1ccc(O)cc1` [micronized acetaminophen, acetaminophen (paracetamol)], in data set [2], the Sauter mean diameter stood at 22.05 μm and the d90 was 75.29 μm. Besides, the “Skeletal (true) density” value in data set [3] worked out at 1.3285 g/mL. The compound further had a Bulk density in data set [4] (after 6000 taps) of 0.36 g/mL.

(Values after US12076444B2, “Methods and systems for depositing active ingredients on substrates” (Purdue Research Foundation, priority 2015, dated 2024).)
